Entries after “also recorded” stand apart in the source; their conditions may differ.
How the values were obtained:
primary human MSCs = test: Initial toxicity studies in primary human MSCs; format: cell-based
ST2 cells [1] = test: In vitro efferocytosis assay, ST2 cells with end stage neutrophils, flow cytometry
Experimental: ST2 cells, a bone marrow-derived mesenchymal stromal cell line, were plated at 2×10^4 per cm^2 in αMEM without ascorbic acid (Gibco)+10% FBS+1% pen-strep and incubated in 21% oxygen at 37° C. until 80% confluency. […] End-stage neutrophils were washed with PBS and fluorescently labeled with 20 nM efluro670 (ThermoFischer) according to manufacturer's instructions. Targets (neutrophils or apoptotic lymphocytes) were given in excess (1 MSC: 10 Target) to plated MSCs and incubated for up to 24 h. Cells were then washed 3× with PBS, imaged, and collected for flow cytometry analysis.

ST2 cells [2] = test: Initial toxicity studies in ST2 cells; format: cell-based, murine; conditions: ST2 cells (stromal cell line)
macrophages = conditions: targeting via clodronate; cited from earlier work
[3] = system: primary human MSCs (hMSCs); test: Efferocytosis assay with pharmacological inhibition of mitochondrial fission, hMSCs; format: cell-based; conditions: pre-treated with 25 μM Mdivi for 1 h, end stage PMN for 24 h
Experimental: (§1) FIGS. 6A, 6B, and 6C show quantification via flow cytometry of viability, end stage neutrophil (PMNs) engulfment, and efficiency (mean fluorescent intensity, MFI) of hMSCs pre-treated with 25 μM Mdivi for 1 h and then given end stage PMN for 24 h. […] N=3, Mean±SD shown on graphs ** p<0.01, *** p<0.001, (1-test or ANOVA).
Primary human MSCs (hMSCs) cells (Lonza) were plated at 2×10^4 per cm^2 in αMEM+10% FBS+1% pen-strep and incubated in 5% O2/5% CO2/37° C. until 80% confluent. Neutrophils were isolated from human peripheral blood via Mono-Poly resolving medium (MP Biomedicals, Inc) according to manufacturer's instructions and incubated in RPMI+10% FBS+10 mM HEPES overnight (18-20 h) at 37° C./5% CO2 as previously described (Casanova-Acebes M, et al. Cell 2013; 153:1025-35). hMSCs were treated with 25 μM Mdivi for 1 h prior to giving 20 nM efluro670 (ThermoFischer) stained end-stage neutrophils in excess (1:10) for 24 h. Cells were then washed 3× with PBS, imaged, and collected for flow cytometry analysis.
All samples were run on a LSRII flow cytometer: 3 lasers, 355 nm, 488 nm, and 633 nm (BD Biosciences). Analysis was performed using FlowJo version 10.8 (Tree Star). Sorting was done on a FACSAria II with 405-, 488-, 532-, and 633 nm lasers (BD Biosciences). All flow cytometry equipment is housed and quality controlled within the URMC Flow Cytometry core.

[4] = system: primary human MSCs (hMSCs); test: Alkaline phosphatase measurement (osteoblastic differentiation) with inhibition of mitochondrial fission, hMSCs; format: cell-based; conditions: for osteoblastic differentiation potential (alkaline phosphatase) of hMSCs: co-treatment with 25 μM Mdivi and PMN
Experimental: as §1
Cells were washed with PBS 3× and then fixed with formalin for 30 min at room temperature (RT). Following fixation, the cells were washed with water 3× and left to sit for 15 min at RT while preparing alkaline phosphatase (AP) staining. To prepare the AP stain, 5 mg Naphthol AS MX-PO4 was dissolved in 200 μL of N,N-dimethylformamide (DMF), 25 mL 0.2 M Tris pH 8.3, and 25 mL water. Red Violet LB salt (30 mg) was added to solution, vortexed, and filter through 45 μm filter. After incubation with AP stain for 45 min RT, cells were washed with water 3× and then stained with 2.5% silver nitrate for 30 min RT in a ventilated area, then washed with water and air dried. All plates were imaged via light microscopy and quantified for osteoblastic formation using ImageJ software.
Cells that performed efferocytosis in the presence or absence of Mdivi, were washed and stained for AP as described above. Wells were photographed, and images were analyzed using ImageJ for staining intensity.

CN1CCN(Cc2ccc(Nc3ncc(Cl)c(Nc4ccccc4S(=O)(=O)N(C)C)n3)cc2)CC1 [TP0903]
toxicity (primary human MSCs): low toxicity | efferocytosis by ST2 cells (ST2 cells [1]; 3 and 24 hrs, pre treated with 100 nM TP0903 for 1 hr, excess (5 PMN: 1 MSC) end stage hPMNs): blocks efferocytosis for a short duration | neutrophil uptake by MSCs (ST2 cells [1]; 3 hours after neutrophil addition, flow cytometry): significantly reduced | toxicity (ST2 cells [2]): low toxicity

O=P(O)(O)C(Cl)(Cl)P(=O)(O)O [clodronate]
bone loss (macrophages): did not result in bone loss

COc1cc(-n2c(S)nc3ccccc3c2=O)c(Cl)cc1Cl [Mdivi]
efficiency (MFI) of efferocytosis by hMSCs [3]: decreased | overall rate of efferocytosis (end stage PMN engulfment) by hMSCs [3]: decreased; also recorded: decreases efferocytic activity in MSCs | viability of hMSCs [3]: without impacting their viability | overall rate of efferocytosis (end stage PMN engulfment) by hMSCs ([3]; listed as MDivi): decreases human MSC (hMSC) efferocytosis | osteoblastic differentiation (alkaline phosphatase) of hMSCs ([4]; Mdivi treatment in the absence of PMN): trending increase in osteoblastic differentiation; also recorded: increases osteoblastic differentiation independent of efferocytic activity | osteoblastic differentiation potential (alkaline phosphatase) of hMSCs [4]: rescued the osteoblastic differentiation potential; also recorded: rescues the defect in osteoblastic differentiation | osteoblastic differentiation potential (alkaline phosphatase) of hMSCs ([4]; listed as MDivi): restores MSC osteoblastic differentiation
